Legend:
IgE = assay: ED50 for inhibition of IgE calculated from the examples; type: in vivo, mouse; settings: dose to achieve 50% inhibition of IgE
Method: From the data in the above examples, the effective dose of each prostaglandin to achieve 50% inhibition of IgE (ED50) was calculated.

IgG1 = assay: Serum IgG1 in anti-IgD stimulated mice (two site sandwich ELISA, Assay B); type: in vivo, mouse (Balb/c female); settings: 20 μg days 3 and 4; for inhibition of IgG1: Example 23; for IgG1 ± SD: Table 12, day 8 (control 10525)
Method: (§1) Sera from mice treated with compounds in accordance with the method of the invention are analyzed for levels of IgG1, IgG2a, IgG3, and IgM.
Mouse IgG1 measurement by a two site sandwich ELISA is as follows. About 5 μg of rabbit anti mouse IgG (Organon-Teknika-Cappel, Malvern, Pa.) is attached to the wells of a NuncImmulon 96 well plate and IgG1 levels are determined in substantial accordance with Assay A except with the following changes. The IgG1 standard is purchased from Southern BioTech, Birmingham, Ala., and stored at 10 μg/ml in 2% NBS in PBS at 4° C. The standard curve is prepared by diluting the mouse IgG1 standard in 0.05% Tween-80 in PBS, and is linear between 3.9 and 250 ng/ml. Serum containing IgG1 is diluted 1/10,000 to 1/1,000,000 in 0.05% Tween 80-PBS, to place the measurement within the standard curve. Standard IgG1 (or diluted serum) is incubated at about 37° C. for 1 hour and the plates are washed with 0.05% Tween 80-PBS as described in Assay A. About a 1/3,000 dilution of Goat anti mouse IgG1 (Southern Biotech, Birmingham, Ala.) conjugated to alkaline phosphatase in 0.05% Tween 80-PBS is added to each well and incubated at about 37° C. for 60 minutes. The plate is washed and colorimetric substrate, prepared as described by the manufacturer (Alkaline Phosphatase Substrate System, KPL, Gaithersburg, Md.), is added and optical density and data analysis is performed in the same manner as Assay A.
(§2) Sera from the mice described in Example 13 are analyzed for the levels of IgG1, IgG2a, and IgG3 by Assays B, C, and D, respectively.
(§3) Two groups of 4 Balb/c female mice per group are injected with both 100 μg FF1-4D5 antibody and 100 μg H∂A1 antibody. One of these groups is a stimulated control designated Group B. On day 3 and 4, the other group is injected with 40 μg (±) methyl 11α, 16-dihydroxy-1-methyl-9-oxoprosta-4Z,13E-dien-1-oate. Another group is injected with only PBS as an unstimulated control (Group A). On day -1 and 8, 50-100 μl of serum is recovered and analyzed for IgE, IgG1 and IgG2a by Assays A, B, and C, respectively.
(§4) 3 groups of 4 Balb/c female mice per group are injected with both 100 μg FF1-4D5 antibody and 100 μg H∂A1 antibody on day 0. Group A is given no further treatment. On day 3 and 4, one group of mice is injected with 20 μg (±) methyl 2-[2-[3R-3α-hydroxy-2β-(4-hydroxy-4-methyl-1E-octenyl-5-oxo-1α-cyclopentyl]-methyl]cyclopropanebutanoate (Group B) and another group with 20 μg (±) methyl 2-[2-[3R-3α-hydroxy-2β-(4-hydroxy-4-methyl-1E-octenyl)-5-oxo-1α-cyclopentyl]ethyl]cyclopropanepropanoate (Group C) as in Example 13. On day -1 and 8, 50-100 μl of serum is recovered and analyzed for IgE, IgG1, IgG2a and IgG3 by Assays A, B, C and D, respectively. The selectivity of inhibition of IgE is shown in Table 12.
(§5) Three groups of 5 Balb/c female mice per group are injected with both 100 μg FF1-4D5 antibody and 100 μg H∂A1 antibody on day 0. Group A is a control with no further treatment. On day 3 and 4, the mice are injected with 20 μg (±) methyl 11α,16-dihydroxy-4,4,16-trimethyl-9-oxoprosta-13E-en-1-oate (Group B) or 20 μg (±) methyl 11α,16-dihydroxy-16-methyl-9-oxoprosta-3,5Z,13E-trien-1-oate (Group C) as in Example 13. On day -1 and 8, […] of serum is recovered and analyzed for IgE, IgG1, IgG2a, IgG3 and IgM by Assays A, B, C, D and E, respectively.

IgG3 = assay: Serum IgG3 in anti-IgD stimulated mice (two site sandwich ELISA, Assay D); type: in vivo, mouse (Balb/c female); settings: 20 μg days 3 and 4; for inhibition of IgG3: Example 23; for IgG3 ± SD: Table 12, day 8 (control 584)
IgG2a = assay: Serum IgG2a in anti-IgD stimulated mice (two site sandwich ELISA, Assay C); type: in vivo, mouse (Balb/c female); settings: 20 μg days 3 and 4; for inhibition of IgG2a: Example 23; for IgG2a ±: Table 12, day 8 (control 849)
Method: as §1
Measurement of mouse IgG2a by a two site sandwich ELISA is performed in substantial accordance with the teaching of Assay B except with the following changes. NuncImmulon II plates are used in this assay. The IgG2a standard is purchased from Southern Biotech. The standard curve is linear between 4-250 ng/ml. Serum containing IgG2a is diluted 1/6400 to 1/1,000,000. About a 1/6,000 dilution of goat anti mouse IgG2a (Southern Biotech) conjugated to alkaline phosphatase is used.
as §2, §3, §4, §5

Row | Structure (SMILES) | ED50 IgE Inhibition (IgE) [μg/mouse/TID] | inhibition of IgG1 (IgG1) | IgG1 ± SD (IgG1) [µg/mL] | inhibition of IgG3 (IgG3) | IgG3 ± SD (IgG3) [µg/mL] | inhibition of IgG2a (IgG2a) | IgG2a ± (IgG2a) [µg/mL]
1 | CCCCC(C)(O)C/C=C/[C@H]1[C@H](O)CC(=O)[C@@H]1CCC1CC1CCC(=O)OC (relative stereo) [(±) methyl 2-[2-[3R-3α-hydroxy-2β-(4-hydroxy-4-methyl-1E-octenyl)-5-oxo-1α-cyclopentyl]ethyl]cyclopropanepropanoate] | 1.0 | not IgG1, IgG2a or IgG3 | 22573 ± 5690 | not IgG1, IgG2a or IgG3 | 901 ± 213 | not IgG1, IgG2a or IgG3 | 840 ± 484
2 | CCCCC(C)(O)C/C=C/[C@H]1[C@H](O)CC(=O)[C@@H]1CC1CC1CCCC(=O)OC (relative stereo) [(±) methyl 2-[2-[3R-3α-hydroxy-2β-(4-hydroxy-4-methyl-1E-octenyl)-5-oxo-1α-cyclopentyl]methyl]cyclopropanebutanoate] | 9.0 | not IgG1, IgG2a or IgG3 | 14470 ± 2997 | not IgG1, IgG2a or IgG3 | 520 ± 39 | not IgG1, IgG2a or IgG3 | 834 ± 235

Reference: patent US5157052A, “Method for inhibiting IgE production” (priority 1990, dated 1992)
